These results are taken from PubChem BioAssay AID1077 (Sanford-Burnham Center for Chemical Genomics, 2009).

The target of the assay is Tyrosine-protein phosphatase non-receptor type 7 (Homo sapiens) (UniProt P35236). Nature of the assay: HePTP phosphatase inhibitor potency, dose response, biochemical, fluorescence, secondary assay (AID 1077). Conditions: recombinant HePTP phosphatase, fluorogenic substrate.
Sequence of Tyrosine-protein phosphatase non-receptor type 7 (Homo sapiens) (P35236 whole entry, looked up): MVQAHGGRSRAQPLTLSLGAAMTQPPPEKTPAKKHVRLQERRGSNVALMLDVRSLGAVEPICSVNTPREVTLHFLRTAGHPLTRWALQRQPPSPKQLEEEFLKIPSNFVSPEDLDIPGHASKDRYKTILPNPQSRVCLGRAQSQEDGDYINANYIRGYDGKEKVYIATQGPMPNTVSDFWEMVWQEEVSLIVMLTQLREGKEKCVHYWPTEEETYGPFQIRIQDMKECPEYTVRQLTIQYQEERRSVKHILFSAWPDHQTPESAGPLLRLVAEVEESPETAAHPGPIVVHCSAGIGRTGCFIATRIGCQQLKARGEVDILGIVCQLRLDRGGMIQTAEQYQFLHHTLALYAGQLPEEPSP

Regarding `CCOc1ccc2nc(NC(=O)CSC3=Nc4sc(C)c(C)c4C(=O)C3)sc2c1`, the IC50 is 15 µM.

For orientation: IC50 means the concentration at which inhibition is half-maximal.
